According to patent US20060079453A1, “Hla binding peptides and their uses” (priority 2002, published 2006):
Like-named read-outs stand apart in the source and are kept apart here. No end group written: not given here.

Legend:
Test in all cases: biochemical
Type in all cases: binding
HLA-DR DRB1*1302 (DR13) = HLA-DR DRB1*1302 (DR13) (Homo sapiens, UniProt P01903+P01911, A100E/A169T/K41T/L162R/M171V/P40S/Q125H/Q178H/Q39Y/Q99D/R42S/S66N/T262R/V115G/W38E/Y61H); details: read-out: DRBI *1302
HLA-DR DRB1*1501 (DR15) = HLA-DR DRB1*1501 (DR15) (Homo sapiens, UniProt P01903+P01911); details: read-out: DRBI *1501
HLA-DR DRB1*1101 (DR11) = HLA-DR DRB1*1101 (DR11) (Homo sapiens, UniProt P01903+P01911, A100R/A169T/A87E/I96F/K41T/L162R/M171V/P40S/Q125H/Q178H/Q39Y/Q99D/R42S/S66Y/T262R/V115G/W38E)
Chain of HLA-DR DRB1*1101 (DR11) (P01903 26-254 limits assumed, other chains not shown): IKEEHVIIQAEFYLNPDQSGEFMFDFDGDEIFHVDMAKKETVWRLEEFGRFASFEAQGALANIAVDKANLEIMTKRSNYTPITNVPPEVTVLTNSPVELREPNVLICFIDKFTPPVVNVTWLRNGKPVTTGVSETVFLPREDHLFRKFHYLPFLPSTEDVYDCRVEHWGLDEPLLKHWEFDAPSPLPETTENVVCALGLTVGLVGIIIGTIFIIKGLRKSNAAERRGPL

HLA-DR DRB4*0101 (DR53) = HLA-DR DRB4*0101 (DR53) (Homo sapiens, UniProt P01903+P13762, G164S); details: read-out: DRB4 *0101
HLA-DR DRB1*0301 (DR3) = HLA-DR DRB1*0301 (DR3) (Homo sapiens, UniProt P01903+P01911, A100K/A102G/A103R/A169T/F55Y/I96L/K41T/L162R/M171V/P40S/Q125H/Q178H/Q39Y/R42S/S66N/T106N/T262R/W38E/Y61H)
Chain of HLA-DR DRB1*0301 (DR3) (P01903 26-254 limits assumed, other chains not shown): as above

HLA-DR DRB1*0401 (DR4) = HLA-DR DRB1*0401 (DR4) (Homo sapiens, UniProt P01903+P01911, A100K/A169T/F76Y/I96L/K127E/L162R/M171V/N62H/P40V/Q125Y/R42H/S133A/S149N/S66Y/V115G/V209L/W38E)
HLA-DR DRB1*0701 (DR7) = HLA-DR DRB1*0701 (DR7) (Homo sapiens, UniProt P01903+P01911, A100R/A102G/A103Q/D57E/D86V/E43K/F76Y/K127E/L162R/M171V/P40G/Q125H/Q99D/R33Q/R42Y/R54Q/S133A/S66F/T210M/V115G/Y107V/Y59L/Y89S)
HLA-DR DRB5*0101 (DR51) = HLA-DR DRB5*0101 (DR51) (Homo sapiens, UniProt P01903+Q30154)
HLA-DR DRB1*0101 (DR1) = HLA-DR DRB1*0101 (DR1) (Homo sapiens, UniProt P01903+P01911, A100R/D57E/F55L/F60I/F76Y/I96L/L162R/M171V/P40L/Q125E/R42F/V115G/Y59C)

Chain of HLA-DR DRB1*1302 (DR13) (P01903 26-254 limits assumed, other chains not shown): as above

Substance	IC50 (HLA-DR DRB1*1302 (DR13)) [nM]	IC50 (HLA-DR DRB1*1501 (DR15)) [µM]	IC50 (HLA-DR DRB1*1101 (DR11); read-out: DRB1 *1101) [µM]	IC50 (HLA-DR DRB5*0101 (DR51); read-out: DRB5 *0101) [µM]	further results
SMEYKKDFLITARKY	3820	4.61	–	–	–
SVTWIGAAPLILSRI	420	–	2.2	–	IC50 (HLA-DR DRB4*0101 (DR53)): 42 nM
TCCYTCGTTVRLCIN	–	–	–	–	IC50 (HLA-DR DRB1*0301 (DR3); read-out: DRB1 *0301): 19.9 µM; IC50 (HLA-DR DRB1*0401 (DR4); read-out: DRB1 *0401): 719 nM; IC50 (HLA-DR DRB1*0701 (DR7); read-out: DRB1 *0701): 63 nM
TEGRCLHYTVDKSKPK	–	–	–	–	IC50 (HLA-DR DRB1*0401 (DR4); DRB1 *0401): 200 nM; IC50 (HLA-DR DRB1*0701 (DR7); DRB1 *0701): > 250000 nM; IC50 (HLA-DR DRB1*1101 (DR11); DRB1 *1101): > 1.25 µM
TGYKVLVLNPSV	21	–	0.026	> 11.4	–
TVVYREGNPFGICKL	> 13100	–	> 18	48.8	–
TYSVSFDSLFSAVKN	5890	3.22	5.98	0.061	–
VASLLTTAEVVVTEI	> 10300	> 50.8	> 18.7	> 119	IC50 (HLA-DR DRB4*0101 (DR53)): > 26400 nM
VGGVYLLPRRGPRLGV	–	–	–	–	IC50 (HLA-DR DRB1*0301 (DR3); read-out: DRB1 *0301): 237 µM
VRTLQQLLMGTCTIV	37	1.83	–	> 15.3	–
VYDFVFADLRGVYRD	79	0.855	–	> 51	–
VYQLDIQSTKEDLRV	708	–	7.35	8.69	IC50 (HLA-DR DRB4*0101 (DR53)): 226 nM
YAGIRRDGLLLRLVD	–	–	–	–	IC50 (HLA-DR DRB1*0301 (DR3)): 0.0096 µM
YAR(15)ASQTTLKAKT	–	–	0.0039	0.0036	IC50 (HLA-DR DRB1*0101 (DR1); read-out: DRB1 *0101): 1.5 nM; IC50 (HLA-DR DRB1*0401 (DR4); read-out: DRB1 *0401): 0.46 nM; IC50 (HLA-DR DRB1*0701 (DR7); read-out: DRB1 *0701): 1200 nM
YDFVFADLRIVYRDG	8170	25.7	6.54	–	–
YEEYVRFDSDVGE	–	–	–	–	IC50 (HLA-DR DRB1*0101 (DR1); DRB1 *0101): ≥ 50000 nM; IC50 (HLA-DR DRB1*0401 (DR4); DRB1 *0401): 400 nM; IC50 (HLA-DR DRB1*1101 (DR11); DRB1 *1101): ≥ 200 µM; IC50 (HLA-DR DRB5*0101 (DR51); DRB5 *0101): ≥ 200 µM
YIVMSDWTGGA	–	–	–	–	IC50 (HLA-DR DRB1*0301 (DR3)): 13.4 µM
